Tested on: mesoCAR TILs against EMMESO tumor cells
Test: Ex vivo killing and cytokine release assays with blocking agents
Format: cell-based, human
Details: blocking agent added ex vivo
Procedure: T cell Effector Assays. Effector T cells were cocultured with firefly luciferase expressing tumor cells at different ratios for a specified period time. At the end of the co-culture incubation period, supernatant was saved for IFN levels by ELISA (Biolegend #430106), wells were washed, and remaining tumor cells were lysed with 1× cell lysis buffer for 30 minutes. The luciferase activity in the lysates was analyzed using the Luciferase Assay System on a GloMax Multi Detection System (Promega.) Results are reported as percent killing based on luciferase activity in wells with tumor, but no T cells. (% killing=100-((RLU from well with effector and target cell coculture)/(RLU from well with target cells)×100)). Effector-to-target ratios represent total T cells per target cell.
Given these expression data, the potential functional importance of specific inhibitory pathways in mesoCAR TILs was studied by introducing available blocking agents during the ex vivo killing and cytokine release assays. […] The relatively high dose of 10 ug/ml anti-PDL1 antibody was based on previously published investigations on cancer immunotherapy.

O.O.O.O.O.O.O.O.O.O=C([O-])[C@@H]1[O][Sb]2([O-])([O][Sb]34([OH])[O][C@H]([C@H](O)CO)[C@H]([O]3)[C@H](C(=O)[O-])[O]4)[O][C@H]([C@H](O)CO)[C@@H]1[O]2.[Na+].[Na+].[Na+] [SSG, sodium stibogluconate]
killing ability of cryo mesoCAR T cells: slightly inhibited | killing activity of mesoCAR TILs: significantly increased | tumor-induced IFN secretion of mesoCAR TILs: significantly increasing
